Measured values reported in patent US20230106032A1, “IMIDAZOTRIAZINES ACTING ON CANCER VIA INHIBITION OF CDK12” (Bayer Aktiengesellschaft, priority 2020, published 2023).

How the values were obtained:
CDK9/CycT1 = biological target: T1, CDK9/CycT1 (Homo sapiens, UniProt P50750); assay: CDK9/CycT1 high ATP kinase assay (TR-FRET, 2 mM ATP); type: biochemical; details: read-out: CDK9/CyclinT1, 2 mM ATP (high ATP) IC50-[mol/l] (median)
T1 construct: Recombinant full-length His-tagged human CDK9 and CycT1, expressed in insect cells; His; purchased Life Technologies PV4131; host or cells: insect cells
Description: CDK9/CycT1-inhibitory activity of compounds of the present invention at a high ATP concentration after preincubation of enzyme and test compounds was quantified employing the CDK9/CycT1 TR-FRET assay as described in the following paragraphs.
Recombinant full-length His-tagged human CDK9 and CycT1, expressed in insect cells and purified by Ni-NTA affinity chromatography, were purchased from Life Technologies (Cat. No PV4131). As substrate for the kinase reaction biotinylated peptide biotin-Ttds-YISPLKSPYKISEG (C-terminus in amide form) was used which can be purchased e.g. form the company JERINI peptide technologies (Berlin, Germany).
For the assay 50 nanoL of a 100 fold concentrated solution of the test compound in DMSO was pipetted into either a black low volume 384 well microtiter plate or a black 1536 well microtiter plate (both Greiner Bio-One, Frickenhausen, Germany), 2 microL of a solution of CDK9/CycT1 in aqueous assay buffer [50 millimol/L Tris/HCl pH 8.0, 10 millimol/L MgCl2, 1.0 millimol/L dithiothreitol, 0.1 millimol/L sodium ortho-vanadate, 0.01% (v/v) Nonidet-P40 (Sigma)] were added and the mixture was incubated for 15 min at 22° C. to allow pre-binding of the test compounds to the enzyme before the start of the kinase reaction. Then the kinase reaction was started by the addition of 3 microL of a solution of adenosine-tri-phosphate (ATP, 3.3 millimol/L=> final conc. in the 5 microL assay volume is 2 millimol/L) and substrate (1.25 micromol/L=> final conc. in the 5 microL assay volume is 0.75 micromol/L) in assay buffer and the resulting mixture was incubated for a reaction time of 25 min at 22° C. The concentration of CDK9/CycT1 was adjusted depending of the activity of the enzyme lot and was chosen appropriate to have the assay in the linear range, typical concentrations were in the range of 0.5 microg/ml. The reaction was stopped by the addition of 3 microL of a solution of TR-FRET detection reagents (0.33 micromol/L streptavidine-XL665 [Cisbio Bioassays, Codolet, France] and 1.67 nanomol/L anti-RB(pSer807/pSer8l 1)-antibody from BD Pharmingen [#558389] and 2 nanomol/L LANCE EU-W1024 labeled anti-mouse IgG antibody [Perkin-Elmer, product no. AD0077]) in an aqueous EDTA-solution (167 millimol/L EDTA, 0.2% (w/v) bovine serum albumin in 100 millimol/L HEPES pH 7.5).
The resulting mixture was incubated 1 h at 22° C. to allow the formation of complex between the phosphorylated biotinylated peptide and the detection reagents. Subsequently the amount of phosphorylated substrate was evaluated by measurement of the resonance energy transfer from the Eu-chelate to the streptavidine-XL. Therefore, the fluorescence emissions at 620 nm and 665 nm after excitation at 350 nm was measured in a TR-FRET reader, e.g. a Pherastar (BMG Labtechnologies, Offenburg, Germany) or a Viewlux (Perkin-Elmer). The ratio of the emissions at 665 nm and at […] was taken as the measure for the amount of phosphorylated substrate. The data were normalised (enzyme reaction without inhibitor=0% inhibition, all other assay components but no enzyme=100% inhibition).

[1] = system: BRCA1 mRNA expression in MDA-MB-231 cells; assay: qRT-PCR assay: inhibition of BRCA1 mRNA expression in MDA-MB-231 cells; type: cell-based; details: Homo sapiens, 24 h exposure, normalised to GAPDH, read-out: RTqPCR-MDA-MB-231 IC50 [mol/l] BRCA1 (median)
Description: Tissue cultured human MDA-MB-231 human breast cancer cells were plated in 500 microL per well at 200,000 cells/well in a 24 well microtiter plate. After 24 h, the cells were exposed continuously for 24 h to test substances (substances were added with Tecan HP D300 Dispenser). RNA was prepared using Qiagen RNeasy MiniKit (#74106), RNA was quantified using a NanoDrop Equipment, and 600 nano gamms of RNA was converted to cDNA using a SuperScript VILO kit (Thermofisher #11755050) followed by qPCR amplification. BRCA1 and ATR gene expression was measured by RT-qPCR and normalised to GAPDH housekeeping gene expression. qPCR primer sets have been purchased from Thermo Fisher Scientific/Applied Biosystems: BRCA1, #Hs 01556193; ATR, #Hs 00992123; GAPDH, #Hs 03929097.

[2] = system: MDA-MB-231 human breast cancer cells; assay: Proliferation assay MDA-MB-231 (crystal violet); type: cell-based; details: 96 h, MDA-MB-231 cells, 4 days, read-out: Prolif-MDA MB231 IC50-[mol/l] (median)
Description: (§1) Human tumour cells were originally obtained from the American Type Culture Collection (ATCC), or from the Deutsche Sammlung von Mikroorganismen und Zellkulturen (DSMZ, German Collection of Microorganisms and Cell Cultures). Cultivated tumour cells (CAL-120, human breast adenocarcinoma cells, DSMZ ACC-459; MDA-MB-231, human breast cancer cells, ATCC HTB-26) were plated at a density of 4,000 cells/well in a 96-well multititer plate in 200 microL of their respective growth medium supplemented 10% fetal calf serum. After 24 hours, the cells of one plate (zero-point plate) were stained with crystal violet (see below), while the medium of the other plates was supplemented with the test substances in various concentrations (0 micromol/L, as well as in the range of 0.01-10 micromol/L; the final concentration of the solvent dimethyl sulfoxide was adjusted to 0.1%) using a Tecan HP D300 Digital Dispenser. The cells were incubated for 4 days in the presence of test substances. Cell proliferation was determined by staining the cells with crystal violet: the cells were fixed by adding 20 microL/measuring point of an 11% glutaric aldehyde solution for 15 minutes at room temperature. After three washing cycles of the fixed cells with water, the plates were dried at room temperature. The cells were stained by adding 100 microL/measuring point of a 0.1% crystal violet solution (pH 3.0). After three washing cycles of the stained cells with water, the plates were dried at room temperature. The dye was dissolved by adding 100 microL/measuring point of a 10% acetic acid solution. The extinction was determined by photometry at a wavelength of 595 nm. The change of cell number, in percent, was calculated by normalization of the measured values to the extinction values of the zero-point plate (=0%) and the extinction of the untreated (0 μM) cells (=100%). The IC50 values (inhibitory concentration at 50% of maximal effect) were determined by means of a 4 parameter fit.

[3] = system: CAL-120 human breast adenocarcinoma cells; assay: Proliferation assay CAL-120 (crystal violet); type: cell-based; details: 96 h, CAL-120 cells, 4 days, read-out: Prolif-CAL-120_ IC50-[mol/l] (median)
Description: as §1

T1 sequence (P50750 whole entry): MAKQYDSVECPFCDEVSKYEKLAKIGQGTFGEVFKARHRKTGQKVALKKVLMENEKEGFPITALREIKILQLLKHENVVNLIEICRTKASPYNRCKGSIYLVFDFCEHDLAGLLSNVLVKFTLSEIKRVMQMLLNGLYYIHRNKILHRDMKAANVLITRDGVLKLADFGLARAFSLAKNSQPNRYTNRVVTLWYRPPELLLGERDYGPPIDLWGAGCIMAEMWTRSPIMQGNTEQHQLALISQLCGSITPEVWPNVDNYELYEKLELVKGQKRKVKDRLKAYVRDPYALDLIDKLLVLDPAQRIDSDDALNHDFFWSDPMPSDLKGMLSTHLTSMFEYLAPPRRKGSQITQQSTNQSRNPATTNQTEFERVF
T1 sequence (O60563 whole entry partner): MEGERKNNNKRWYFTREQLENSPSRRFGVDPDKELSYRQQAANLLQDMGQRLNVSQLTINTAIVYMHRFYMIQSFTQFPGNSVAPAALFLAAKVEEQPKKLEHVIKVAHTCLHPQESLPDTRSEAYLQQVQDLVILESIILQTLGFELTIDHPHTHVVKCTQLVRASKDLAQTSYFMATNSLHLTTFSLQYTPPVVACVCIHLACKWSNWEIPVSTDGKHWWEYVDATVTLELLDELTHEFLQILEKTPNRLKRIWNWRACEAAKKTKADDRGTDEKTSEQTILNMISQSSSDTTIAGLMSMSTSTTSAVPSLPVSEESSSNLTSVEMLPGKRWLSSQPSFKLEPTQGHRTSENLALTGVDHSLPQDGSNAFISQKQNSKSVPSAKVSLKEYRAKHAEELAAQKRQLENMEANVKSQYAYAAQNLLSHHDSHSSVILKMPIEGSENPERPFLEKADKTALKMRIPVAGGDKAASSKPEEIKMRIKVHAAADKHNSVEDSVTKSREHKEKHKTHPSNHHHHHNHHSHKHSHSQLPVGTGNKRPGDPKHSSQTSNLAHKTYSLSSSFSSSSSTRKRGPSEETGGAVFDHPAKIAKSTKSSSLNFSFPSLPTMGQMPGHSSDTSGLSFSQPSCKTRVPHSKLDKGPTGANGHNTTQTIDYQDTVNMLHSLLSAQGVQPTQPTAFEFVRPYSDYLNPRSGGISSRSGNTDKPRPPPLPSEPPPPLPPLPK

SMILES	IC50 (CDK9/CycT1)	IC50 [2]	IC50 [3]	IC50 [1]
Brc1cnc2c(NCc3nc4ccccc4[nH]3)nc(N3CCOCC3)nn12 [Example 1, N-[(1H-benzimidazol-2-yl)methyl]-7-bromo-2-(morpholin-4-yl)imidazo[2,1-f][1,2,4]triazin-4-amine]	> 20000 nM	42 nM	–	10 nM
N#Cc1cnc2c(NCc3nc4ccccc4[nH]3)nc(N3CCOCC3)nn12 [Example 2, 4-{[(1H-benzimidazol-2-yl)methyl]amino}-2-(morpholin-4-yl)imidazo[2,1-f][1,2,4]triazine-7-carbonitrile]	> 20000 nM	–	103 nM	11.1 nM
Fc1cccc(-c2cnc3c(NCc4nc5ccccc5[nH]4)nc(N4CCOCC4)nn23)c1 [Example 3, N-[(1H-benzimidazol-2-yl)methyl]-7-(3-fluorophenyl)-2-(morpholin-4-yl)imidazo[2,1-f][1,2,4]triazin-4-amine]	> 20000 nM	–	–	> 100 nM
C[C@@H]1CN(c2nc(NCc3nc4ccccc4[nH]3)c3ncc(Br)n3n2)C[C@H](C)O1 [Example 4, N-[(1H-benzimidazol-2-yl)methyl]-7-bromo-2-[rel-(2R,6S)-2,6-dimethylmorpholin-4-yl]imidazo[2,1-f][1,2,4]triazin-4-amine]	17700 nM	59.2 nM	53.8 nM	25.9 nM
C[C@@H]1CN(c2nc(NCc3nc4c(F)c(F)ccc4[nH]3)c3ncc(Br)n3n2)C[C@H](C)O1 [Example 5, 7-bromo-N-[(4,5-difluoro-1H-benzimidazol-2-yl)methyl]-2-[rel-(2R,6S)-2,6-dimethylmorpholin-4-yl]imidazo[2,1-f][1,2,4]triazin-4-amine]	3470 nM	–	7.97 nM	6.39 nM
CN1CCN(c2nc(NCc3nc4ccccc4[nH]3)c3ncc(Br)n3n2)CC1 [Example 6, N-[(1H-benzimidazol-2-yl)methyl]-7-bromo-2-(4-methylpiperazin-1-yl)imidazo[2,1-f][1,2,4]triazin-4-amine]	> 20000 nM	71 nM	61.4 nM	69 nM
Fc1ccc2[nH]c(CNc3nc(N4CCOCC4)nn4c(Br)cnc34)nc2c1F [Example 7, 7-bromo-N-[(4,5-difluoro-1H-benzimidazol-2-yl)methyl]-2-(morpholin-4-yl)imidazo[2,1-f][1,2,4]triazin-4-amine]	9060 nM	7.93 nM	8.44 nM	6.36 nM
Brc1cnc2c(NCc3nc4ccccc4[nH]3)nc(N3CCNCC3)nn12 [Example 8, N-[(1H-benzimidazol-2-yl)methyl]-7-bromo-2-(piperazin-1-yl)imidazo[2,1-f][1,2,4]triazin-4-amine]	> 20000 nM	14.5 nM	3.25 nM	3.4 nM
C[C@@H]1CN(c2nc(NCc3nc4ccccc4[nH]3)c3ncc(Br)n3n2)C[C@H](C)N1 [Example 9, N-[(1H-benzimidazol-2-yl)methyl]-7-bromo-2-[rel-(3R,5S)-3,5-dimethylpiperazin-1-yl]imidazo[2,1-f][1,2,4]triazin-4-amine]	> 20000 nM	9.6 nM	2.04 nM	3.52 nM

Now from value to compound, other results behind:

IC50 (CDK9/CycT1)	IC50 [2]	IC50 [3]	SMILES	IC50 [1]
12400 nM	2.49 nM	0.859 nM	Fc1ccc2[nH]c(CNc3nc(N4CCNCC4)nn4c(Br)cnc34)nc2c1F [Example 10, 7-bromo-N-[(4,5-difluoro-1H-benzimidazol-2-yl)methyl]-2-(piperazin-1-yl)imidazo[2,1-f][1,2,4]triazin-4-amine]	0.548 nM
10800 nM	0.948 nM	0.381 nM	C[C@@H]1CN(c2nc(NCc3nc4c(F)c(F)ccc4[nH]3)c3ncc(Br)n3n2)C[C@H](C)N1 [Example 11, 7-bromo-N-[(4,5-difluoro-1H-benzimidazol-2-yl)methyl]-2-[rel-(3R,5S)-3,5-dimethylpiperazin-1-yl]imidazo[2,1-f][1,2,4]triazin-4-amine]	0.396 nM
> 20000 nM	111 nM	49.6 nM	Fc1cccc2[nH]c(CNc3nc(N4CCOCC4)nn4c(Br)cnc34)nc12 [Example 12, 7-bromo-N-[(4-fluoro-1H-benzimidazol-2-yl)methyl]-2-(morpholin-4-yl)imidazo[2,1-f][1,2,4]triazin-4-amine]	–
> 18900 nM	27.9 nM	12.3 nM	COc1cccc2[nH]c(CNc3nc(N4CCOCC4)nn4c(Br)cnc34)nc12 [Example 13, 7-bromo-N-[(4-methoxy-1H-benzimidazol-2-yl)methyl]-2-(morpholin-4-yl)imidazo[2,1-f][1,2,4]triazin-4-amine]	8.06 nM
> 18100 nM	3.91 nM	2.33 nM	COc1cccc2[nH]c(CNc3nc(N4C[C@@H](C)N[C@@H](C)C4)nn4c(Br)cnc34)nc12 [Example 14, 7-bromo-2-[rel-(3R,5S)-3,5-dimethylpiperazin-1-yl]-N-[(4-methoxy-1H-benzimidazol-2-yl)methyl]imidazo[2,1-f][1,2,4]triazin-4-amine]	1.47 nM
4110 nM	–	19.3 nM	OC[C@@H]1CCCCN1c1nc(NCc2nc3ccccc3[nH]2)c2ncc(Br)n2n1 [Example 17, [(2S)-1-(4-{[(1H-benzimidazol-2-yl)methyl]amino}-7-bromoimidazo[2,1-f][1,2,4]triazin-2-yl)piperidin-2-yl]methanol]	15.7 nM
